Test results taken from patent publication US20250352520A1, “USE OF DEXPRAMIPEXOLE FOR THE TREATMENT OF EOSINOPHILIC COPD” (Areteia Therapeutics, Inc., priority 2024, published 2025).

Conditions: Week 8; <50% AEC reduction at Week 16

CCCN[C@@H]1CCc2nc(N)sc2C1 [Dexpramipexole, (6R)-2-amino-4,5,6,7-tetrahydro-6-(propylamino)benzothiazole]
Pre-BD FEF25-75 % change from baseline, Max: 58%
Pre-BD FEF25-75 % change from baseline, Mean ± SD: 30.4 ± 31.72%
Pre-BD FEF25-75 % change from baseline, Median: 38.4%
Pre-BD FEF25-75 % change from baseline, Min: −14%
Pre-BD FEF25-75 % change from baseline, Q1: 8%
Pre-BD FEF25-75 % change from baseline, Q3: 53%
Pre-BD FEF25-75 Observed, Max: 2050 mL/s
Pre-BD FEF25-75 Observed, Mean ± SD: 875.0 ± 790.55 mL/s
Pre-BD FEF25-75 Observed, Median: 535.0 mL/s
Pre-BD FEF25-75 Observed, Min: 380 mL/s
Pre-BD FEF25-75 Observed, Q1: 410 mL/s
Pre-BD FEF25-75 Observed, Q3: 1340 mL/s
Pre-BD FEF25-75 change from baseline, Max: 660 mL/s
Pre-BD FEF25-75 change from baseline, Mean ± SD: 200.0 ± 324.14 mL/s
Pre-BD FEF25-75 change from baseline, Median: 120.0 mL/s
Pre-BD FEF25-75 change from baseline, Min: -100 mL/s
Pre-BD FEF25-75 change from baseline, Q1: 0 mL/s
Pre-BD FEF25-75 change from baseline, Q3: 400 mL/s
Pre-BD FEV1 % change from baseline, Max: 41%
Pre-BD FEV1 % change from baseline, Mean ± SD: 16.0 ± 19.59%
Pre-BD FEV1 % change from baseline, Median: 13.2%
Pre-BD FEV1 % change from baseline, Min: −4%
Pre-BD FEV1 % change from baseline, Q1: 1%
Pre-BD FEV1 % change from baseline, Q3: 31%
Pre-BD FEV1 Observed, Max: 2940 mL
Pre-BD FEV1 Observed, Mean ± SD: 1755.0 ± 860.79 mL
Pre-BD FEV1 Observed, Median: 1600.0 mL
Pre-BD FEV1 Observed, Min: 880 mL
Pre-BD FEV1 Observed, Q1: 1215 mL
Pre-BD FEV1 Observed, Q3: 2295 mL
Pre-BD FEV1 change from baseline, Max: 860 mL
Pre-BD FEV1 change from baseline, Mean ± SD: 282.5 ± 410.23 mL
Pre-BD FEV1 change from baseline, Median: 165.0 mL
Pre-BD FEV1 change from baseline, Min: -60 mL
Pre-BD FEV1 change from baseline, Q1: -5 mL
Pre-BD FEV1 change from baseline, Q3: 570 mL
Pre-BD FVC % change from baseline, Max: 17%
Pre-BD FVC % change from baseline, Mean ± SD: 4.5 ± 11.70%
Pre-BD FVC % change from baseline, Median: 5.1%
Pre-BD FVC % change from baseline, Min: −9%
Pre-BD FVC % change from baseline, Q1: −5%
Pre-BD FVC % change from baseline, Q3: 14%
Pre-BD FVC Observed, Max: 3990 mL
Pre-BD FVC Observed, Mean ± SD: 3162.5 ± 792.10 mL
Pre-BD FVC Observed, Median: 3175.0 mL
Pre-BD FVC Observed, Min: 2310 mL
Pre-BD FVC Observed, Q1: 2500 mL
Pre-BD FVC Observed, Q3: 3825 mL
Pre-BD FVC change from baseline, Max: 540 mL
Pre-BD FVC change from baseline, Mean ± SD: 167.5 ± 353.02 mL
Pre-BD FVC change from baseline, Median: 185.0 mL
Pre-BD FVC change from baseline, Min: -240 mL
Pre-BD FVC change from baseline, Q1: -120 mL
Pre-BD FVC change from baseline, Q3: 455 mL
Pre-BD Peak Flow % change from baseline, Max: 500%
Pre-BD Peak Flow % change from baseline, Mean ± SD: 136.0 ± 243.51%
Pre-BD Peak Flow % change from baseline, Median: 28.5%
Pre-BD Peak Flow % change from baseline, Min: −13%
Pre-BD Peak Flow % change from baseline, Q1: 4%
Pre-BD Peak Flow % change from baseline, Q3: 268%
Pre-BD Peak Flow Observed, Max: 319 L/min
Pre-BD Peak Flow Observed, Mean ± SD: 227.0 ± 70.68 L/min
Pre-BD Peak Flow Observed, Median: 217.5 L/min
Pre-BD Peak Flow Observed, Min: 154 L/min
Pre-BD Peak Flow Observed, Q1: 175 L/min
Pre-BD Peak Flow Observed, Q3: 280 L/min
Pre-BD Peak Flow change from baseline, Max: 200 L/min
Pre-BD Peak Flow change from baseline, Mean ± SD: 70.5 ± 97.89 L/min
Pre-BD Peak Flow change from baseline, Median: 55.5 L/min
Pre-BD Peak Flow change from baseline, Min: -29 L/min
Pre-BD Peak Flow change from baseline, Q1: -1 L/min
Pre-BD Peak Flow change from baseline, Q3: 142 L/min
